Assay results published in US7638506B2, “Granular agrochemical composition” (Kumiai Chemical Industry Co., Ltd., priority 2002, dated 2009).
Read-outs that look alike come from different tables or passages of the source.

Assay: pKa of the acidic agrochemically active ingredient
Format: physicochemical
Description: In the case of using the above-described acidic agrochemically active ingredient having the prescribed pKa, the pKa of the ingredient can be measured by, for example, a method described in “Jikken Kagaku Koza 5, (Thermal measurement and Equilibrium)”, Maruzene, p. 469-474, Jan. 20 (1958) and the like.

SMILES	pKa	pKa (read-out: pKa)
COCc1cccc(C(O)c2nc(OC)cc(OC)n2)c1NS(=O)(=O)C(F)F (stereo not drawn) [Compound A, 2-[(4,6-dimethoxypyrimidin-2-yl)hydroxymethyl]-6-methoxymethyl-N-difuloromethanesulfonylanilide]	5.75	–
CCc1cccc(C(O)c2nc(OC)cc(OC)n2)c1NS(=O)(=O)C(F)F (stereo not drawn) [Compound B, 2-[(4,6-dimethoxypyrimidin-2-yl)hydroxymethyl]-6-ethyl-N-difuloromethanesulfonylanilide]	6.17	–
CCOP(=O)(Sc1ccccc1)Sc1ccccc1 [EDDP]	10.5	–
CNC(=O)Oc1ccccc1OC(C)C [PHC]	11.5	–
COc1cc(OC)nc(NC(=O)NS(=O)(=O)c2c(-c3nnn(C)n3)cnn2C)n1 [azimsulfuron, 1-(4,6-dimethoxypyrimidin-2-yl)-3-[1-methyl-4-(2-methyl-2H-tetrazol-5-yl)pyrazol-5-ylsulfonyl]urea]	–	3.6
COC(=O)c1ccccc1CS(=O)(=O)NC(=O)Nc1nc(OC)cc(OC)n1 [bensulfuron-methyl, methyl α-(4,6-dimethoxypyrimidin-2-ylcarbamoylsulfamoyl)-o-toluate]	5.03	–
COc1cc(OC)nc(NC(=O)NS(=O)(=O)c2c(Cl)nc3ccccn23)n1 [imazosulfuron, 1-(2-chloroimidazo[1,2-a]pyridin-3-ylsulfonyl)-3-(4,6-dimethoxypyrimidin-2-yl)urea]	–	4
CCOC(=O)c1cnn(C)c1S(=O)(=O)NC(=O)Nc1nc(OC)cc(OC)n1 [pyrazosulfuron-ethyl, ethyl 5-(4,6-dimethoxypyrimidin-2-ylcarbamoylsulfamoyl)-1-methylpyrazole-4-carboxylate]	–	3.91
Cc1cccc2sc3nncn3c12 [tricyclazole, 5-methyl-1,2,4-triazolo[3,4-b]benzothiazole]	1.6	–
